This note sets out measurements from the METLIN SMRT retention time set (Domingo-Almenara et al. 2019).

Structures are written as SMILES.

The data set in a line: gradient 5% acetonitrile 3 min, to 50% in 2 min, to 85% in 15 min, held 3 min, 100 µL/min. The settings on record: column: Zorbax Extend-C18 2.1 x 50 mm; eluents: water / acetonitrile, 0.1% formic acid. The method in brief:
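Pure standards were run in mixtures of ~100 molecules by HPLC coupled to a quadrupole time-of-flight mass spectrometer. The column was a Zorbax Extend-C18 (2.1 × 50 mm, 1.8 μm) at 100 μL/min, with water and acetonitrile each containing 0.1% formic acid, in positive and negative ionization mode. Dead and dwell volumes were 40 μL and 900 μL. Retention time was taken from computationally picked adduct peaks, each manually inspected, with data collected over 3 months.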
The compound `Cc1cc(OCC(=O)Nc2ccc3c(c2)OCO3)nc(N2CCN(c3ccccc3)CC2)n1` gave an RP-LC retention time of 776 s.

For the compound `O=C(C1CCCN(c2nc3cccnc3s2)C1)N1CCN(c2ccccc2)CC1` (stereo not given), the RP-LC retention time amounted to 844 s.

Take `COc1cc(-c2noc(Cn3ccnc3C)n2)cc(OC)c1OC`: the RP-LC retention time is 596 s.

`Cc1ccc(Nc2c(-c3c(F)cccc3Cl)nc3ccc(Cl)cn23)cc1`: the RP-LC retention time was determined as 994 s.

As to `CCCCN(C)C(=O)C1CCCN(c2cnc3nccnc3c2)C1` (stereo not given), the RP-LC retention time is 686 s.

On to `COC(=O)c1c(C)[nH]c(C(=O)N2CCC(CC(=O)NCCC(C)C)CC2)c1C`, for which the RP-LC retention time is 716 s.

As for `CCc1nc(-c2csc(S(=O)(=O)N3CCCC(C(=O)Nc4ccccc4F)C3)c2)no1` (stereo not given), the RP-LC retention time came out at 1010 s.

On to `O=C(Nc1cnn(-c2ncncc2N2CCCCC2)c1)C1CC1`, for which the RP-LC retention time was 604 s.

`Cc1cc(C)cc(NC(=O)C2CCCN(c3ncnc4c3nc3n4CCCCC3)C2)c1` (stereo not given) showed an RP-LC retention time of 907 s.

Turning to `O=S(=O)(c1cccc(-c2nc(-c3ccccc3)no2)c1)N1CCC2(CC1)OCCO2`, the RP-LC retention time was found to be 784 s.

For `O=C(NC1CCCCCCC1)C1CCCN(c2cn[nH]c(=O)c2)C1` (stereo not given), the RP-LC retention time is 719 s.

Turning to `O=C(NCc1ccco1)C1CCN(Cc2cc3ccccc3n2Cc2ccccc2)CC1`, the RP-LC retention time was found to be 747 s.

In the case of `CCCCn1c(=O)c2ccccc2n(Cc2nc(-c3ccc(OC(F)(F)F)cc3)no2)c1=O`, the RP-LC retention time is 1280 s.

Compound `CCOC(=O)c1c(S(=O)(=O)N2CCC(C(=O)Nc3cc(C)cc(C)c3)CC2)c(C)n(CC)c1C` showed an RP-LC retention time of 980 s.

The compound `C=CCN1C(=O)COc2ccc(-c3nc(NC(=O)c4ccccc4)sc3C)cc21` yielded an RP-LC retention time of 1040 s.

The compound `O=C(O)c1cc2cc(Cl)ccc2[nH]1` returned an RP-LC retention time of 740 s.

The compound `Cc1cc(S(=O)(=O)N2CCn3c(nnc3C3CCN(C(C)C)C3)C2)ccc1Cl` (stereo not given) had an RP-LC retention time of 637 s.

`Cc1ccc(S(=O)(=O)NCCc2nc(-c3cccc(-c4ccnn4C)c3)no2)cc1` registered an RP-LC retention time of 917 s.

`CC(C)NC(=O)N1CCCN(S(=O)(=O)C(C)C)CC1` came in with an RP-LC retention time of 649 s.

In turn, `CCNC(=O)Nc1ccc2c(c1)CN(C(=O)Nc1ccc3c(c1)OCCO3)CCO2` yielded an RP-LC retention time of 706 s.

In turn, `CCN1CCN(c2cc(C)c3cc(NC(=O)CC(C)C)ccc3n2)CC1` returned an RP-LC retention time of 560 s.

With `CCCCNC(=O)c1sc2ncn(CC(=O)N3CC(C)CC(C)C3)c(=O)c2c1C` (stereo not given), the RP-LC retention time stood at 890 s.

Turning to `Cc1ccc(NC(=O)Cn2cccc2-c2nnc(C3CCC3)o2)cc1`, the RP-LC retention time worked out at 926 s.

Compound `O=C(NCC1CCN(Cc2ccsc2)CC1)Nc1ccc2c(c1)OCO2` registered an RP-LC retention time of 554 s.

`CC(C)CCNC(=O)C1CCN(c2cnn(Cc3ccccc3)c(=O)c2)CC1`: the RP-LC retention time came out at 790 s.

`CCc1ccccc1NC(=O)N1CCc2nc(-c3ccccc3)ncc2C1` returned an RP-LC retention time of 924 s.

In the case of `COc1ccc(Nc2c(C(=O)N3CCCCC3)cnc3nc(C)ccc23)cc1`, the RP-LC retention time was found to be 605 s.

Consider `COc1ccc(C(=O)N2CCC(c3cc(N)on3)CC2)c(OC)c1`, for which the RP-LC retention time amounted to 658 s.

`Cc1nc(C)c(C(=O)N2CCCC(n3c(C)cnc3C3CCC3)C2)s1` (stereo not given) yielded an RP-LC retention time of 591 s.

As for `COC1C(=O)N(CC2CC2)C12CCN(C(=O)C(C)C)CC2` (stereo not given), the RP-LC retention time came out at 686 s.

In the case of `O=C(Nc1ccc(N2CCN(c3ccccc3)C2=O)nc1)C1CCC1`, the RP-LC retention time was 844 s.

In the case of `Cc1c(Cl)cccc1NC(=O)C(C)n1cnc2nc3c(cc2c1=O)CCCC3` (stereo not given), the RP-LC retention time was determined as 805 s.

Compound `O=C(Nc1cccc(Br)c1)NC1CCN(c2ccc(F)cc2)C1=O` (stereo not given) displayed an RP-LC retention time of 818 s.

The compound `CCn1nccc1C(=O)N1CCCC1c1ccc(F)cc1` (stereo not given) displayed an RP-LC retention time of 785 s.

In the case of `Cc1ccc(NC(=O)Cc2c(C)nn(-c3nc(-c4ccc(Cl)cc4)cs3)c2C)cc1C`, the RP-LC retention time was 852 s.

Compound `COc1ccc2[nH]cc(C3=CCNCC3)c2c1` registered an RP-LC retention time of 648 s.

In the case of `COCCn1cc(CCNC(=O)Nc2cccc(Cl)c2F)c2cccnc21`, the RP-LC retention time worked out at 798 s.

As for `CC(C)n1cnc(S(=O)(=O)N2CCCC(C(=O)Nc3cccc4c3CCCC4)C2)c1` (stereo not given), the RP-LC retention time turned out to be 865 s.

For the compound `Cc1cc(C)c(C(=O)N2CCC(CC(=O)NCc3ccc(Cl)cc3)CC2)[nH]1`, the RP-LC retention time is 800 s.

On to `COc1ccc(-c2ccnn2-c2ccc(SCc3ccccc3)nn2)cc1`, for which the RP-LC retention time came to 1320 s.

The compound `O=C(NC(c1ccccc1)c1nnc(N2CCOCC2)o1)c1ccccc1F` (stereo not given) showed an RP-LC retention time of 733 s.

The compound `CCC(=O)n1nc(-c2ccc(C)c(C)c2)nc1N` showed an RP-LC retention time of 923 s.

For `COc1ccc(-c2c(C)noc2NC(C)=O)cc1S(=O)(=O)Nc1ccc(Cl)cc1F`, the RP-LC retention time was found to be 807 s.

`COc1cc(OC)cc(C(=O)N2CCN(c3nc4ccccc4cc3-c3noc(C)n3)CC2)c1` yielded an RP-LC retention time of 971 s.

`O=C(NCCc1ccccc1)C1CCCN(C(=O)c2cc(-c3ccccn3)n[nH]2)C1` (stereo not given) registered an RP-LC retention time of 705 s.

Turning to `CCc1nc(-c2cc(S(=O)(=O)NCC(=O)NC3CCCC3)c(C)s2)no1`, the RP-LC retention time is 843 s.

Compound `CCn1cc(C)c(C(=O)O)c1CC(=O)Nc1ccc(Cl)cc1` showed an RP-LC retention time of 1010 s.

`Cc1ccc(CN2CCCn3nc(C(=O)NCc4ccc(C)o4)cc3C2=O)cc1`: the RP-LC retention time was found to be 875 s.

For `O=C(CN1CCN(C(=O)Nc2ccc(Br)cc2)CC1=O)NC1CCCCC1`, the RP-LC retention time came to 735 s.

On to `O=C(Nc1ccc(Cl)cn1)C(=O)c1cccn1Cc1ccccc1`, for which the RP-LC retention time was 1180 s.

Take `CCN(CC)C(=O)c1ccc2c(c1)N(CC(=O)Nc1ccc3c(c1)OCO3)C(=O)C1CCCCN21` (stereo not given): the RP-LC retention time was 808 s.

`COC(=O)c1cc(S(=O)(=O)N2CCCC2C(=O)Nc2cccc(C#N)c2)cn1C` (stereo not given) came in with an RP-LC retention time of 826 s.

With `Cc1ccc(Cn2cccc2C(=O)C(=O)NC2CCCC2)cc1`, the RP-LC retention time stood at 1100 s.

On to `CCCN1C(=O)c2c(C(=O)N(C)Cc3ccccc3)ncn2CC1(C)C(=O)NCc1ccc(C)cc1` (stereo not given), for which the RP-LC retention time was 793 s.

Take `CCCNc1nc(-c2ccc(Br)cc2)cs1`: the RP-LC retention time turned out to be 1000 s.

Regarding `O=C(NC1CCCCC1)c1cc2ccccc2cc1O`, the RP-LC retention time came to 1180 s.

Compound `Cc1cccc(-c2noc(C3CCCN3S(=O)(=O)c3cc(C)ccc3C)n2)c1` (stereo not given) displayed an RP-LC retention time of 1260 s.

On to `O=C(Nc1c(F)cccc1F)N1CCc2nc(-c3ccccc3)ncc2C1`, for which the RP-LC retention time is 811 s.

As for `Cc1nc(-c2noc(-c3ccncc3)n2)cn1CC(=O)N1CCN(c2ccc(F)cc2)CC1`, the RP-LC retention time is 689 s.

Compound `CC(C)N1C(=O)c2cccnc2Sc2cc(NC(=O)c3ccncc3)ccc21` had an RP-LC retention time of 662 s.
